Laboratory results from ChEMBL document CHEMBL2095176, “GSK Tuberculosis Screening Data”.
Converted amounts (≈) assume the structure as drawn.

These compounds were tested on Mycobacterium tuberculosis variant bovis BCG (assay: microbe, parasite or virus in culture).
Assay type: functional

SMILES	MIC90
c1ccc(-c2nc(N3CCCCCC3)nc(-n3ccnc3)n2)cc1	9.6 µM (≈ 3.08 µg/mL)
CCOc1ccc(NC(=O)N(C2CCCCC2)C(C)c2cccnc2)cc1 (stereo not given)	7.2 µM (≈ 2.65 µg/mL)
O=C(Nc1nc(-c2ccccn2)cs1)c1cc2ccccc2o1	7 µM (≈ 2.25 µg/mL)
Cc1ccc(-c2ccc(SCC(=O)Nc3nonc3C)nn2)cc1	6.8 µM (≈ 2.32 µg/mL)
O=C(Nc1nc(-c2ccccn2)cs1)c1ccc2c(c1)CCCC2	6.8 µM (≈ 2.28 µg/mL)
CN(C)c1ccc(NC(=O)Nc2ccccc2C(F)(F)F)cc1	6.4 µM (≈ 2.07 µg/mL)
O=C(CCc1nc2ccccc2oc1=O)N[C@@H]1CCC(=O)N[C@H]1c1ccsc1	6.4 µM (≈ 2.54 µg/mL)
c1ccc(COc2ccc(CN3CCC4(CC3)OCCc3sccc34)cc2)nc1	6.4 µM (≈ 2.6 µg/mL)
CCCCc1cc(OC)c(C(=O)Nc2cccc3c2CCN(C)C3)cc1Cl	6.4 µM (≈ 2.48 µg/mL)
O=C(NC1CCCCC1)c1cc2cc(OC(F)(F)F)ccc2[nH]1	6.4 µM (≈ 2.09 µg/mL)
COc1ccc(-c2cc3nccc(C4CCCNC4)n3n2)cc1 (stereo not given)	6.5 µM (≈ 2 µg/mL)
O=C(c1ccc(-c2cccc(OCCN(CCO)C3CCCCC3)c2)cc1)N1CCCC1	6.5 µM (≈ 2.84 µg/mL)
CC(C)c1ccc(OCC(=O)NNC(=O)c2ccncc2)cc1	6.5 µM (≈ 2.04 µg/mL)
Cc1cc(C)n(Cc2ccc(C(=O)NC3CCC(C(C)(C)C)CC3)cc2)n1 (stereo not given)	6.5 µM (≈ 2.39 µg/mL)
O=C(CSc1nnc(-c2ccccc2)o1)Nc1nc(-c2ccccn2)cs1	6.6 µM (≈ 2.61 µg/mL)
O=C(NCc1ccccc1F)N1CCN(Cc2ccc(Br)s2)CC1	9.4 µM (≈ 3.88 µg/mL)
O=C(N[C@@H](Cc1ccccc1)C(=O)Nc1ccccc1N1CCOCC1)c1cccs1	3.2 µM (≈ 1.39 µg/mL)
CSc1ccc(-c2nnc(NC(=O)c3ccc(Cl)s3)o2)cc1	6.5 µM (≈ 2.29 µg/mL)
OC1(c2ccccc2)Oc2ccccc2N=C1c1ccccc1 (stereo not given)	4.8 µM (≈ 1.45 µg/mL)
Fc1ccc2[nH]c(-c3cccc(-c4ccc(CNCCN5CCNCC5)cc4)c3)nc2c1	6.7 µM (≈ 2.88 µg/mL)
CCCc1cc(-c2nc(-c3ccc(OC)c(OC)c3)cs2)ccn1	6.7 µM (≈ 2.28 µg/mL)
CCCc1cc(-c2nc(-c3ccc4c(c3)OCO4)cs2)ccn1	6.7 µM (≈ 2.17 µg/mL)
Cc1cc(/C=C/c2cccc(C(=O)O)c2)cc(Cl)c1OCC1CCCNC1 (stereo not given)	6.7 µM (≈ 2.59 µg/mL)
Clc1ccc(-c2ccc3c(c2)CC(NCc2ccc(-n4cncn4)cc2)C3)cc1 (stereo not given)	6.7 µM (≈ 2.69 µg/mL)
COc1cc(CN2CCC(Cc3nc(-c4ccc5c(c4)CCO5)no3)C2)ccc1F (stereo not given)	6.7 µM (≈ 2.74 µg/mL)
CC(C)Oc1ccc(NCC(=O)Nc2ccc(F)cc2)cc1	6.7 µM (≈ 2.03 µg/mL)
O=C(CSc1ccccc1)Nc1nc(-c2ccccn2)cs1	6.7 µM (≈ 2.19 µg/mL)

SMILES	MIC90
O=c1c2sc(-c3ccc(Cl)cc3)cc2ncn1-c1ccc(OCCN2CC[C@@H](F)C2)cc1	6.7 µM (≈ 3.15 µg/mL)
CC(C)OC(=O)COc1ccc(-c2cnc(N(C)CCc3ccncc3)nc2)cc1	8.5 µM (≈ 3.46 µg/mL)
COCCCNCCOc1ccc2ccccc2c1Br	6.8 µM (≈ 2.3 µg/mL)
O=C(NC(=Cc1ccc(-c2cccc(C(F)(F)F)c2)o1)C(=O)N1CCOCC1)c1ccccc1	6.8 µM (≈ 3.2 µg/mL)
O=C(NNC(=O)C1CC1C(=O)O)c1ccncc1 (stereo not given)	6.8 µM (≈ 1.69 µg/mL)
CC(C)c1ccc(C(=O)Nc2ccc3c(c2)CN(C)CC3)cc1C(F)(F)F	6.8 µM (≈ 2.56 µg/mL)
COc1ccc(CC(=O)Nc2c(-c3cccs3)nc3cc(C)ccn23)cc1	9.2 µM (≈ 3.47 µg/mL)
COc1ccc(-c2nc(NC(=O)C3CCCN3S(=O)(=O)c3cccs3)sc2C)cc1 (stereo not given)	6.9 µM (≈ 3.2 µg/mL)
CC(=O)Oc1ccc(Cn2cc(C(=O)NCc3ccccc3)sc2=O)cc1	6.9 µM (≈ 2.64 µg/mL)
CS(=O)(=O)c1oc(-c2cccs2)nc1S(=O)(=O)c1ccc(F)cc1	6.9 µM (≈ 2.67 µg/mL)
CC(C)COc1ccc(C(=O)Nc2ccc(N3CCN(C)CC3)cc2)cc1	6.9 µM (≈ 2.54 µg/mL)
O=C(Nc1cccc(C(=O)N2CCCC2c2nc3ccccc3s2)c1)c1cccs1 (stereo not given)	6.9 µM (≈ 2.99 µg/mL)
Cc1cc(=O)[nH]c(-n2nc(C)cc2NC(=O)COc2ccccc2C)n1	6.9 µM (≈ 2.44 µg/mL)
COc1ccc(-c2ccc(Nc3cccc(S(=O)(=O)CCNCCn4nc(C)cc4C)c3)nc2)cn1	6.9 µM (≈ 3.5 µg/mL)
O=C(Nc1nncs1)c1c(O)c2ccccc2n(Cc2ccccc2)c1=O	6.9 µM (≈ 2.61 µg/mL)
CCC1=NN(C(=O)c2ccncc2)C(O)(c2ccncc2)C1 (stereo not given)	6.9 µM (≈ 2.04 µg/mL)
Cn1c(Sc2ccnc(N3CCN(c4ccncc4)CC3)n2)nnc1C(N)=O	6.9 µM (≈ 2.74 µg/mL)
CCCCN1CCC(Cc2noc(-c3cc(Cl)c(N)c4c3OCCO4)n2)C1 (stereo not given)	6.9 µM (≈ 2.71 µg/mL)
O=C(Nc1nnc(-c2ccc(F)cc2)o1)c1ccc(Cl)cc1	6.9 µM (≈ 2.19 µg/mL)
O=C(Nc1ccc(C(F)(F)F)cc1)OCC1CCCN2CCCCC12 (stereo not given)	6.9 µM (≈ 2.46 µg/mL)
COc1cccc(CNc2nc(C)cc(-c3cccc(CN(C)C)c3)n2)c1	7 µM (≈ 2.54 µg/mL)
CC1CCC(NC(=O)Nc2ccc3snnc3c2)CC1 (stereo not given)	7 µM (≈ 2.03 µg/mL)
O=C(Nc1nc(-c2ccccn2)cs1)c1ccc(Oc2ccccc2)cc1	7 µM (≈ 2.61 µg/mL)
COc1ccc(S(=O)(=O)CC(=O)N(CCN(C)C)c2nc3c(C)ccc(Cl)c3s2)cc1	7 µM (≈ 3.37 µg/mL)
Cc1c(Cl)ccc2sc(N(CCN(C)C)C(=O)c3ccc(S(C)(=O)=O)cc3)nc12	7 µM (≈ 3.16 µg/mL)
COc1ccc(-c2ccc(Nc3cccc(S(=O)(=O)CCNCC4CCCO4)c3)nc2)cn1 (stereo not given)	7 µM (≈ 3.28 µg/mL)
O=C(NC1CCN(Cc2ccc(F)cc2)C1)c1sccc1-c1cccc(Cl)c1 (stereo not given)	7 µM (≈ 2.9 µg/mL)

SMILES	MIC90
Cc1nn(-c2nc(-c3ccccn3)nc3ccsc23)c(N)c1C#N	7 µM (≈ 2.33 µg/mL)
COc1cc(C(=O)Nc2nc(-c3ccccn3)cs2)ccc1OCC(C)C	7 µM (≈ 2.68 µg/mL)
CSc1ccc(C(=O)Nc2nnc(-c3ccc4c(c3)CCCC4)o2)cc1	7 µM (≈ 2.56 µg/mL)
COc1cc(CCN2CC[C@H](NC(=O)c3ccc(Cl)c(Cl)c3)C2)ccc1OC1CCNCC1	7 µM (≈ 3.45 µg/mL)
COc1cc(/C=C/C(=O)O)ccc1OCCN1CCCCCC1	7 µM (≈ 2.24 µg/mL)
COc1ccc(Nc2ccccc2NC(=O)c2ccc(O)nc2)cc1	9 µM (≈ 3.02 µg/mL)
Cc1c(C(=O)[C@@H]2C[C@H]2CN(Cc2ccccn2)Cc2ccccn2)sc2ccccc12	7.1 µM (≈ 3.04 µg/mL)
Cc1ccc(Cl)cc1Oc1ccncc1CNc1ccccc1S(C)(=O)=O	7.1 µM (≈ 2.86 µg/mL)
NCCCOc1cccc2c(-c3ccncc3)c(-c3cccc(NC(=O)Nc4ccccc4)c3)nn12	7.1 µM (≈ 3.4 µg/mL)
Brc1ccc2cc(C3=NCCCO3)[nH]c2c1	7.1 µM (≈ 1.98 µg/mL)
Cc1cc(CN2CC[C@H](NC(=O)c3ccc(Cl)c(Cl)c3)C2)ccc1OCCN1CCNCC1	7.1 µM (≈ 3.49 µg/mL)
CSc1cccc(-c2nnc(NC(=O)c3ccc4c(c3)CCCC4)o2)c1	7.2 µM (≈ 2.63 µg/mL)
COc1ccc(NC(=O)c2ccc(CN3CCCCC3)o2)c(OC)c1	7.2 µM (≈ 2.48 µg/mL)
CCc1c(C)sc2nc(C)nc(SCC(=O)NCc3ccccc3)c12	7.2 µM (≈ 2.68 µg/mL)
C=Cn1cccc1C(=O)N1CCCC(n2cnc3sc(C)c(CC)c3c2=O)C1 (stereo not given)	7.3 µM (≈ 2.89 µg/mL)
COc1ccc(-c2ccc(Nc3cccc(S(=O)(=O)CCN(C)CCc4ccccn4)c3)nc2)cn1	7.3 µM (≈ 3.68 µg/mL)
O=C(NC1CCN(Cc2ccsc2)C1)c1sccc1-c1cccc(F)c1 (stereo not given)	7.3 µM (≈ 2.82 µg/mL)
COc1ccc(CN(C)S(=O)(=O)c2ccc(OC)c(-c3nc(C(C)C)no3)c2)cc1	7.3 µM (≈ 3.15 µg/mL)
O=C(Nc1nnc(-c2ccc(Cl)s2)o1)c1ccc(S(=O)(=O)N2CCCCC2)cc1	7.3 µM (≈ 3.31 µg/mL)
Cn1cc(-c2noc(/C=C3/CCN4CCCC[C@@H]4C3)n2)c2ccccc21	7.3 µM (≈ 2.54 µg/mL)
O=C(/C=C/c1ccccc1C(F)(F)F)Nc1ccc2c(c1)C1CCCN1CC2 (stereo not given)	7.3 µM (≈ 2.82 µg/mL)
CN1CCCN(c2ncnc3sc(-c4ccccc4)cc23)CC1	7.4 µM (≈ 2.4 µg/mL)
COc1ccc(-c2ccc(Nc3cccc(S(=O)(=O)CCN(C)Cc4ccccc4)c3)nc2)cn1	7.4 µM (≈ 3.62 µg/mL)
CN1CCN(c2cc(-c3ccc(F)cc3)nc(-c3ccncc3)n2)CC1	7.9 µM (≈ 2.76 µg/mL)
Clc1ccc2c(N3CCNCC3)ccnc2c1	6.5 µM (≈ 1.61 µg/mL)
c1ccc(-c2nc(NC3CCCCC3)cc(C3CC3)n2)nc1	3.7 µM (≈ 1.09 µg/mL)
